The target in this experiment is T1, aryl hydrocarbon receptor (AHR) (Homo sapiens, UniProt P35869).
T1 construct: human AHR in liver cytosol of mice expressing human AHR; also HepG2 (40/6) cells
T1 sequence (P35869 11-848): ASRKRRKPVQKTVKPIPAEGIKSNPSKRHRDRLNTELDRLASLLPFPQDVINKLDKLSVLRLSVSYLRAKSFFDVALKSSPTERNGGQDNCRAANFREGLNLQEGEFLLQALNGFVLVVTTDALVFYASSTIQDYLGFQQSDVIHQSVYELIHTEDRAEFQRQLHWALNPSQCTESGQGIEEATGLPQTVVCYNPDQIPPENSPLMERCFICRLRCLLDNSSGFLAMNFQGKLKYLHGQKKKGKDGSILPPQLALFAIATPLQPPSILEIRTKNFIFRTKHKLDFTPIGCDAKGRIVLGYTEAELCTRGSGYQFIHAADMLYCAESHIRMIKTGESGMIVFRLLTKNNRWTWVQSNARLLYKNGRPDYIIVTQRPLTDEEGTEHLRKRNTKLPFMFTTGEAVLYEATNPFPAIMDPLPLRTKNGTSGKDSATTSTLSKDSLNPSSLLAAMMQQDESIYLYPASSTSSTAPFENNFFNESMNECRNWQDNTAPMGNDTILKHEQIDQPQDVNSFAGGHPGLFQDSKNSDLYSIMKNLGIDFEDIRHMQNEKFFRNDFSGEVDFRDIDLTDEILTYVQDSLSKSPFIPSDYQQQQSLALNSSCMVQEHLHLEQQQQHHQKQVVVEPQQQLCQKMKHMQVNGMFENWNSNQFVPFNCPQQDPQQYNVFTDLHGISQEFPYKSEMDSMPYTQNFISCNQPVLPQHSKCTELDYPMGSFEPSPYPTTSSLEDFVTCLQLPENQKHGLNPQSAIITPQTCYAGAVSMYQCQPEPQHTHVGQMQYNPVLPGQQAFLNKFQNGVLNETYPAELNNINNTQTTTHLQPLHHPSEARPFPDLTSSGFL
Put plainly: competition with […] photoaffinity ligand (PAL) in human AHR-expressing hepatic cytosol. The class given is binding.

As usually defined, the IC50 is the concentration that inhibits the measured activity by half.

In the case of `O=c1oc2cc(O)ccc2c2ccc(O)cc12` [UroA, Urolithin A], the IC50 was found to be 800 nM.
